For test [1], the target named is T1, PAR2 (HT-29 cells, SLIGKV activation) (Homo sapiens, UniProt P55085).
T1 construct: host or cells: HT-29 cells
T1 sequence (P55085 26-397): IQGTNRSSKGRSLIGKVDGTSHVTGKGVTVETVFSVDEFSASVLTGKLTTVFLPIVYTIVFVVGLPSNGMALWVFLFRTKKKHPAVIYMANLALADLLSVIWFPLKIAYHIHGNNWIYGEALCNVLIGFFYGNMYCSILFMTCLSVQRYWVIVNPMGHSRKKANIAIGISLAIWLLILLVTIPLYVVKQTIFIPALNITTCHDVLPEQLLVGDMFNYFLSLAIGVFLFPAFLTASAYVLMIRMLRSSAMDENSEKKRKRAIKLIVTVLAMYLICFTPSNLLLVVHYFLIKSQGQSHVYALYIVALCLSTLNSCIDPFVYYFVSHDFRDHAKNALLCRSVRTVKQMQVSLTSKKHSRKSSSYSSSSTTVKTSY
Description: Ca FLIPR TETRA assay, ANTAGONIST mode, stimulation with 8 μM SLIGKV. The conditions noted are these: HT-29 cells, stimulation with 8 μM SLIGKV. The test is classed as cell-based. In short, it runs like this:
(§1)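 HT-29 cells in 1% FBS/McCoy's overnight, loaded with Calcium 5 dye; compounds added and read first for intrinsic Ca2+ activation, then incubated 30 min at r.t. Antagonism read on FLIPR Tetra after stimulation with final 8 μM SLIGKV, 3.1 U/mL trypsin, 1 U/mL thrombin or 0.6 μM UTP.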

In test [2] the test system is Thrombin-stimulated Ca2+ response in HT-29 cells. Description: Ca FLIPR TETRA assay, ANTAGONIST mode, stimulation with 1 U/mL Thrombin. The conditions noted are these: Homo sapiens; HT-29 cells, stimulation with 1 U/mL Thrombin. The test is classed as cell-based, human. How it is done: (§2) Example 60: Protocol for Testing PAR2 Compounds in ANTAGONIST Mode Using the Ca FLIPR^TETRA Assay (384 Well)
(§3) 23000 HT-29 cells (ATCC# HTB-38) were plated in 384-well black, transparent-flat bottom plates and incubated in 25 uL of 1% FBS/McCoy's media ON at 37° C. under an atmosphere of 5% CO2. The following day, 25 uL FLIPR calcium 5 Molecular Devices assay reagent (Cat: R-8186) was added. Plates were incubated at 37° C. and r. t. for 45 min and 15 min, respectively. Compounds dilutions were prepared in 100% DMSO using a Biomek FX and diluted 20-fold in HBSS and then 5.5 uL was added directly to the cells by the FLIPR^TETRA (10× dilution) using FLIPR Tetra Pipette tips, black, non-sterile, 384 Molecular Devices (Cat: 9000-0764).
(§4) A first read was performed to determine whether the test compounds on their own can activate Ca2+ responses.
(§5) The cells were incubated with the compounds for 30 min at r. t. and then read in ANTAGONIST mode in the same plate by stimulating with 6.2 uL of a fixed concentration of the activator: final concentrations: 8 μM SLIGKV, 1 U/mL Thrombin, 3.1 U/mL trypsin, or 0.6 μM UTP.

The target in test [3] is T2, PAR2 (HT-29 cells, trypsin activation) (Homo sapiens, UniProt P55085).
T2 construct: host or cells: HT-29 cells
T2 sequence (P55085 26-397): T1 sequence (P55085 26-397)
Description: Ca FLIPR TETRA assay, ANTAGONIST mode, stimulation with 3.1 U/mL trypsin. The class given is cell-based. The following applies: HT-29 cells, stimulation with 3.1 U/mL trypsin. A digest of the protocol:
as §1

Test [4] has as its system UTP-stimulated Ca2+ response in HT-29 cells. Description: Ca FLIPR TETRA assay, ANTAGONIST mode, stimulation with 0.6 μM UTP. The test is classed as cell-based, human. The conditions noted are these: Homo sapiens; HT-29 cells, stimulation with 0.6 μM UTP. On the procedure: as §2, §3, §4, §5

Broadly, the IC50 is the concentration at which inhibition is half-maximal. Consider `CC(C)c1cc(-c2ccc(F)cc2)nn2cc(C(=O)N3CCC4(CC3)CNC(=O)O4)nc12` [Compound I-24, 8-[6-(4-fluorophenyl)-8-isopropyl-imidazo[1,2-b]pyridazine-2-carbonyl]-1-oxa-3,8-diazaspiro[4.5]decan-2-one], for which the IC50 in test [1] was 0.22 µM; in test [2], > 50 µM; in test [3], 0.59 µM; in test [4] it was > 50 µM.

In the case of `CC(C)c1cc(-c2ccc(F)cc2)nn2cc(C(=O)N3CCNC(=O)C3(C)C)nc12` [Compound I-25, 4-[6-(4-fluorophenyl)-8-isopropyl-imidazo[1,2-b]pyridazine-2-carbonyl]-3,3-dimethyl-piperazin-2-one], the IC50 in test [1] is 0.009 µM; in test [2], > 50 µM; in test [3], 0.021 µM; in test [4], > 50 µM.

On to `CC(C)c1cc(-c2ccc(F)cc2)nn2cc(C(=O)N3CCN(C(=O)C4(O)CCOCC4)CC34COC4)nc12` [Compound I-26, [6-(4-fluorophenyl)-8-isopropyl-imidazo[1,2-b]pyridazin-2-yl]-[8-(4-hydroxytetrahydropyran-4-carbonyl)-2-oxa-5,8-diazaspiro[3.5]nonan-5-yl]methanone], for which the IC50 was determined as 4.4 µM in test [1], 28 µM in test [2], 9.1 µM in test [3] and 31 µM in test [4].

In the case of `CC(C)c1cc(-c2ccc(F)cc2)nn2cc(C(=O)N3CCN(C(=O)C4(O)CCC4)C[C@@H]3C)nc12` [Compound I-28, [6-(4-fluorophenyl)-8-isopropyl-imidazo[1,2-b]pyridazin-2-yl]-[(2S)-4-(1-hydroxycyclobutanecarbonyl)-2-methyl-piperazin-1-yl]methanone], the half-inhibitory concentration (IC50) is 8.8 µM in test [1], 33 µM in test [2], 15 µM in test [3] and 38 µM in test [4].

For `CC1(c2cc(-c3ccc(F)cc3)nn3cc(C(=O)N4CCNC(=O)C4(C)C)nc23)CC1` [Compound I-30, 4-[6-(4-fluorophenyl)-8-(1-methylcyclopropyl)imidazo[1,2-b]pyridazine-2-carbonyl]-3,3-dimethyl-piperazin-2-one], the IC50 in test [1] worked out at 0.002 µM; in test [2], 25 µM; in test [3] it was 0.003 µM; in test [4], 26 µM.

Consider `CC1(c2cc(-c3ccc(F)cc3)nn3cc(C(=O)N4CCN(C(=O)C5(O)CCOCC5)CC4(C)C)nc23)CC1` [Compound I-31, [6-(4-fluorophenyl)-8-(1-methylcyclopropyl)imidazo[1,2-b]pyridazin-2-yl]-[4-(4-hydroxytetrahydropyran-4-carbonyl)-2,2-dimethyl-piperazin-1-yl]methanone], for which the IC50 in test [1] turned out to be 0.031 µM; in test [2] it was 19 µM; in test [3], 0.042 µM; in test [4], 24 µM.

As to `CC1(c2cc(-c3ccc(F)cc3)nn3cc(C(=O)N4CCN(C(=O)C5(O)CCC5)CC4(C)C)nc23)CC1` [Compound I-33, [6-(4-fluorophenyl)-8-(1-methylcyclopropyl)imidazo[1,2-b]pyridazin-2-yl]-[4-(1-hydroxycyclobutanecarbonyl)-2,2-dimethyl-piperazin-1-yl]methanone], the concentration for half-maximal inhibition (IC50) in test [1] was 0.045 µM; in test [2], > 50 µM; in test [3], 0.014 µM; in test [4], > 50 µM.

As to `C[C@H](O)C(=O)N1CCN(C(=O)c2cn3nc(-c4ccc(F)cc4)cc(C4(C)CC4)c3n2)C(C)(C)C1` [Compound I-34, (2S)-1-[4-[6-(4-fluorophenyl)-8-(1-methylcyclopropyl)imidazo[1,2-b]pyridazine-2-carbonyl]-3,3-dimethyl-piperazin-1-yl]-2-hydroxy-propan-1-one], the 50% inhibitory concentration (IC50) in test [1] was determined as 0.054 µM; in test [2], 21 µM; in test [3], 0.059 µM; in test [4] it was 21 µM.

With `CC1(C)C(=O)NCCN1C(=O)c1cn2nc(-c3ccc(F)cc3)cc(C(F)(F)F)c2n1` [Compound I-35, 4-[6-(4-Fluorophenyl)-8-(trifluoromethyl)imidazo[1,2-b]pyridazine-2-carbonyl]-3,3-dimethyl-piperazin-2-one], the concentration for half-maximal inhibition (IC50) is 0.023 µM in test [1], 43 µM in test [2], 0.062 µM in test [3] and 41 µM in test [4].

`CC(C)(O)C(=O)N1CCN(C(=O)c2cn3nc(-c4ccc(F)cc4)cc(C(F)(F)F)c3n2)C(C)(C)C1` [Compound I-36, 1-[4-[6-(4-Fluorophenyl)-8-(trifluoromethyl)imidazo[1,2-b]pyridazine-2-carbonyl]-3,3-dimethyl-piperazin-1-yl]-2-hydroxy-2-methyl-propan-1-one]: the IC50 was 0.071 µM in test [1], > 50 µM in test [2], 0.24 µM in test [3] and > 50 µM in test [4].

Take `CC1(C)CN(C(=O)C2(O)CCC2)CCN1C(=O)c1cn2nc(-c3ccc(F)cc3)cc(C(F)(F)F)c2n1` [Compound I-37, [6-(4-Fluorophenyl)-8-(trifluoromethyl)imidazo[1,2-b]pyridazin-2-yl]-[4-(1-hydroxycyclobutanecarbonyl)-2,2-dimethyl-piperazin-1-yl]methanone]: the IC50 is 0.2 µM in test [1], > 50 µM in test [2], 0.25 µM in test [3] and > 50 µM in test [4].

For the compound `CC1(C)CN(C(=O)C2(O)CCOCC2)CCN1C(=O)c1cn2nc(-c3ccc(F)cc3)cc(C(F)(F)F)c2n1` [Compound I-38, [6-(4-Fluorophenyl)-8-(trifluoromethyl)imidazo[1,2-b]pyridazin-2-yl]-[4-(4-hydroxytetrahydropyran-4-carbonyl)-2,2-dimethyl-piperazin-1-yl]methanone], the half-maximal inhibitory concentration (IC50) in test [1] is 0.39 µM; in test [2] it was > 50 µM; in test [3] it was 0.48 µM; in test [4], > 45 µM.

As to `C[C@H](O)C(=O)N1CCN(C(=O)c2cn3nc(-c4ccc(F)cc4)cc(C(F)(F)F)c3n2)C(C)(C)C1` [Compound I-39, (2S)-1-[4-[6-(4-Fluorophenyl)-8-(trifluoromethyl)imidazo[1,2-b]pyridazine-2-carbonyl]-3,3-dimethyl-piperazin-1-yl]-2-hydroxy-propan-1-one], the IC50 in test [1] is 0.83 µM; in test [2] it was > 50 µM; in test [3], 0.86 µM; in test [4], > 50 µM.

With `CC(C)c1cc(C2=CCCCC2)nn2cc(C(=O)N3CCN(C(=O)C4(O)CCC4)CC3(C)C)nc12` [Compound I-40, [6-(Cyclohexen-1-yl)-8-isopropyl-imidazo[1,2-b]pyridazin-2-yl]-[4-(1-hydroxycyclobutanecarbonyl)-2,2-dimethyl-piperazin-1-yl]methanone], the IC50 in test [1] worked out at 0.072 µM; in test [2] it was 24 µM; in test [3] it was 0.37 µM; in test [4] it was 17 µM.

For the compound `CC(C)c1cc(C2CCCCC2)nn2cc(C(=O)N3CCN(C(=O)C4(O)CCC4)CC3(C)C)nc12` [Compound I-41, (6-Cyclohexyl-8-isopropyl-imidazo[1,2-b]pyridazin-2-yl)-[4-(1-hydroxycyclobutanecarbonyl)-2,2-dimethyl-piperazin-1-yl]methanone], the IC50 in test [1] is 0.061 µM; in test [2], 20 µM; in test [3] it was 0.28 µM; in test [4] it was 21 µM.

(Values after patent publication US20190119282A1, “IMIDAZOPYRIDAZINES USEFUL AS INHIBITORS OF THE PAR-2 SIGNALING PATHWAY” (Vertex Pharmaceuticals Incorporated, priority 2013, published 2019).)
